Measured values: patent publication US9758494B2, “N-(oxazol-2-yl)-aryl-carboxylic acid amides and use thereof as herbicides” (BAYER CROPSCIENCE AG, priority 2012, dated 2017)

What was measured:
Format in all cases: in vivo
[1] = tested on: Stellaria media; assay: Post-emergence herbicidal action; conditions: Dosage 5/ha (Table T)
Method: (§1) Seeds of monocotyledonous and dicotyledonous weed plants and crop plants are laid out in wood fiber pots in sandy loam, covered with soil and cultivated in a greenhouse under good growth conditions. 2 to 3 weeks after sowing, the test plants are treated at the one-leaf stage. The compounds according to the invention, formulated in the form of wettable powders (WP) or as emulsion concentrates (EC), are then sprayed onto the green parts of the plants in the form of an aqueous suspension or emulsion at a water application rate equating to 600 to 800 l/ha, with addition of 0.2% wetting agent. After the test plants have been left to stand in the greenhouse under optimal growth conditions for about 3 weeks, the action of the preparations is assessed visually in comparison to untreated controls (herbicidal action in percent (%): 100% activity=the plants have died, 0% activity=like control plants). Here, for example, compounds No. 1-163, 1-171, 1-172, 1-173, 1-254, 1-283, 1-284, 1-293, 1-294 and 1-334, at an application rate of 80 g/ha, have an activity of at least 80% against Abutilon theophrasti and Amaranthus retroflexus.
(§2) In the tables below, the properties of the compounds according to the invention are compared to those of the structurally most similar compounds known from WO 2012/028579 A1. These tests were carried out by the pre- and post-emergence method under the conditions mentioned under item 1 and item 2. Here, the herbicidal activity against various harmful plants and the damage of some important crop plants were compared at different dosages.

[2] = tested on: Veronica persica; assay: Post-emergence herbicidal action; conditions: Dosage 5/ha (Table T)
Method: as §1, §2

[3] = tested on: Oryza sativa (Rice); assay: Pre-emergence, damage of crop plants
From the text: (§3) Seeds of monocotyledonous and dicotyledonous weed plants and crop plants are laid out in wood-fiber pots in sandy loam and covered with soil. The compounds according to the invention, formulated in the form of wettable powders (WP) or as emulsion concentrates (EC), are then applied to the surface of the soil cover in the form of an aqueous suspension or emulsion at a water application rate equating to 600 to 800 l/ha, with addition of 0.2% wetting agent. After the treatment, the pots are placed in a greenhouse and kept under good growth conditions for the test plants. The damage to the test plants is assessed visually after a test period of 3 weeks by comparison with untreated controls (herbicidal activity in percent (%): 100% activity=the plants have died, 0% activity=like control plants). Here, for example, compounds No. 1-163, 1-171, 1-172, 1-283, 1-284, 1-294, 1-295, 1-334, 10-001 and 11-343, at an application rate of 320 g/ha, have an activity of at least 80% against Veronica persica.
as §2

[4] = tested on: Zea mays (Corn); assay: Post-emergence, damage of crop plants; conditions: Dosage 80 g/ha (Table U)
Method: as §1, §2

[5] = tested on: Oryza sativa (Rice); assay: Post-emergence, damage of crop plants; conditions: Dosage 80 g/ha (Table U)
Method: as §1, §2

[6] = tested on: Matricaria inodora; assay: Pre-emergence herbicidal action; conditions: Dosage 80/ha (Table H)
From the text: as §3, §2

[7] = tested on: Echinochloa crus galli; assay: Pre-emergence herbicidal action; conditions: Dosage 80/ha (Table H)
From the text: as §3, §2

O=C(Nc1ncco1)c1ccc(C(F)(F)F)nc1Cl [10-1]
herbicidal activity against harmful plants STEME [1]: 40% | herbicidal activity against harmful plants VERPE [2]: 90% | Damage of ORYZA ([3]; 20 g/ha (Table I)): 0% | Damage of ORYZA ([3]; 80 g/ha (Table I)): 0% | damage of crop plants ZEAMX [4]: 0% | damage of crop plants ORYZA [5]: 0% | herbicidal activity against harmful plants MATIN [6]: 90% | herbicidal activity against harmful plants ECGCG [7]: 70%
